What was measured:
[1] = Hypolipidaemic activity in Sprague-Dawley rats fed a 1.5% cholesterol-enriched diet for a week; assay type: in vivo; details: for Blood Total Cholesterol, Treating, Mean ± SE / Blood Total Cholesterol, % Change: 1 mg/kg/day, rats fed […] cholesterol-enriched diet for a week; for Blood Total Cholesterol, Treating, Mean ± SE: n = 9, * p ≤ 0.01 (Dunnett's test); for Blood Total Cholesterol, % Change: treating vs control
Description: Moreover, the compounds of the invention are useful as antidyslipidaemic agents, indeed they show a high activity in lowering total serum cholesterol and triglycerides. […] Table II exemplifies the results obtained by testing the hypolipidaemic activity of a representative group of compounds of the invention administered at the dose of 1 mg/kg/day to Sprague-Dawley rats fed 1.5% cholesterol-enriched diet for a week.
Hypocholesterolaemic activity of FCE compounds given at
1 mg/kg/day to rats fed 1.5% cholesterol-enriched diet

[2] = as above; assay type: in vivo; details: Rattus norvegicus, 168 h, 1.5% cholesterol-enriched chow for a week, compound added to the diet
[3] = Liver cholesterol accumulation in albino mice fed a 1.5% cholesterol-enriched diet for seven hours; assay type: in vivo; details: acute oral dose of 10 mg/kg
[4] = Hypolipidaemic effect in New Zealand White rabbits fed a 1% cholesterol-enriched diet for 30 days; assay type: in vivo; details: compound added to the diet; for ED50: Oryctolagus cuniculus, 720 h
[5] = biological target: T1, acyl CoA:cholesterol acyltransferase (ACAT-EC 2.3.1.26) (Oryctolagus cuniculus, UniProt A0A5F9CPP4); assay: Inhibition of ACAT activity in microsomal preparations from atherosclerotic rabbit thoracic aorta; assay type: biochemical; details: microsomes from atherosclerotic rabbit thoracic aorta; read-out: IC50 values for the inhibition activity in microsomes from atherosclerotic rabbit thoracic aortae
T1 construct: microsomal preparations from atherosclerotic rabbit thoracic aorta; from tissue; host or cells: microsomes of atherosclerotic rabbit thoracic aorta
T1 sequence (A0A5F9CPP4 1-555): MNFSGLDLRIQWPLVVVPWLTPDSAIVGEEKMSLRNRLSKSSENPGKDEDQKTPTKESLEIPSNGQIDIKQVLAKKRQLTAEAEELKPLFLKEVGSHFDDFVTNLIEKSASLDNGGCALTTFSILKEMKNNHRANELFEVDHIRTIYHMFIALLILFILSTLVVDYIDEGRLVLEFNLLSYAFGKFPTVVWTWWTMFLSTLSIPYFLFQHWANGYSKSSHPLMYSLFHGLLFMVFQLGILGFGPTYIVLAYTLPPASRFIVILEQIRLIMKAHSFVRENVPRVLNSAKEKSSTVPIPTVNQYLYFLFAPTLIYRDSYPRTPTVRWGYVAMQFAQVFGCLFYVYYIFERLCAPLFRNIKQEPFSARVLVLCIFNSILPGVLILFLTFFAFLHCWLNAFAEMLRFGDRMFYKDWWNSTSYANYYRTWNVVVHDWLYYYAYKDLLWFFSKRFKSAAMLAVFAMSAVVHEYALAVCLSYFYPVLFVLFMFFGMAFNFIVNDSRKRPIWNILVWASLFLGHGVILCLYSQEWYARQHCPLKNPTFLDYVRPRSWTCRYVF

[6] = liver, read-out: ED50 for the cholesterol lowering effect in liver
[7] = plasma, read-out: ED50 for the cholesterol lowering effect in plasma

Row | SMILES | Blood Total Cholesterol, Treating, Mean ± SE [1] [mg/dL] | Blood Total Cholesterol, % Change [1] [%] | IC50 [5] [nM] | further results
1 | CC(C)c1cccc(C(C)C)c1NC(=O)NCC1(c2ccccc2)O[C@H](C)[C@@H](C)O1 [FCE 27529, N-[2,6-bis(1-methylethyl)phenyl]-N'-[(4R,5R)-4,5-dimethyl-2-phenyldioxolan-2-yl]methylurea] | 75 ± 4 | -62 |  | 
2 | CC(C)c1cccc(C(C)C)c1NC(=O)NCC1(c2ccc(N(C)C)cc2)OCC(C)(C)CO1 [FCE 27607, N-[2,6-bis(1-methylethyl)phenyl]-N'-[2-(4-dimethylaminophenyl)-5,5-dimethyl-1,3-dioxan-2-yl]methylurea] | 110 ± 8 | -48 |  | 
3 | CC(C)c1cccc(C(C)C)c1NC(=O)NCC1(c2ccccc2)OC(C)C(C)O1 (stereo not drawn) [FCE 27050, N-[2,6-bis(1-methylethyl)phenyl]-N'-[(2RS,4RS,5RS)-4,5-dimethyl-2-phenyldioxolan-2-yl]methylurea] | 62 ± 5 | -60 |  | ED50 [2, 6]: 0.51 mg/kg; ED50 [2, 7]: 0.83 mg/kg; accumulation of cholesterol in the liver [3]: prevented in a significative fashion the accumulation of cholesterol in the liver; ED50 [4, 6]: 0.16 mg/kg; ED50 [4, 7]: 0.19 mg/kg; accumulation of cholesterol in the liver [4]: prevented the accumulation of cholesterol in the liver; hypolipidaemic effect [4]: potent hypolipidaemic effect; hypolipidaemic effect ([1]; Sprague-Dawley rats, […] cholesterol-enriched chow for a week, compound added to the diet): remarkable hypolipidaemic effect
4 | CCOC(CNC(=O)Nc1c(C(C)C)cccc1C(C)C)(OCC)c1ccccc1 [FCE 27020, N-[2,6-bis(1-methylethyl)phenyl]-N'-(2,2-diethoxy-2-phenyl) ethylurea] |  |  | 7.47 | 
5 | CC(C)c1cccc(C(C)C)c1NC(=O)NCC1(C2CCCCC2)SCCS1 [FCE 27612, N-[2,6-bis(1-methylethyl)phenyl]-N'-(2-cyclohexyl-1,3-dithiolan-2-yl)methylurea] | 59 ± 7 | -72 | 9.5 | 
6 | CC(C)c1cccc(C(C)C)c1NC(=O)NCC1(C2CCCCC2)OCC(C)(C)CO1 [FCE 27356, N-[2,6-bis(1-methylethyl)phenyl]-N'-(2-cyclohexyl-5,5-dimethyl-1,3-dioxan-2-yl)methylurea] |  |  | 6.5 | 
7 | CC(C)c1cccc(C(C)C)c1NC(=O)NCC1(C2CCCCC2)O[C@@H](C)[C@H](C)O1 [FCE 27480, N-[2,6-bis(1-methylethyl)phenyl]-N'-[(4S, 5S)-2-cyclohexyl-4,5-dimethyldioxolan-2-yl]methylurea] | 85 ± 9 | -46 |  | 

Reference: patent publication US5264441A, “Disubstituted ureas and thioureas derivatives” (Farmitalia Carlo Erba S.r.l., priority 1991, dated 1993)
